{"source": "paper PMC12040169", "about": "(PLOS Biology, 2025)"}
{"assay": "in vitro", "settings": "human, hela cells, % viability", "units": {"viability at 28.5 h, 10 µM": "%"}}
{"smiles": "OCCN1CC2(CCN(CCc3cccc4ccccc34)CC2)c2ccccc21", "note": "[CBK137013]", "viability at 28.5 h, 10 µM": 106}
{"smiles": "OCCN1CC2(CCN(Cc3cccc4cccnc34)CC2)c2ccccc21", "note": "[CBK137014]", "viability at 28.5 h, 10 µM": 95.1}
{"smiles": "N#CCCCN1CCC2(CC1)CN(CC(N)=O)c1ccccc12", "note": "[CBK137024]", "viability at 28.5 h, 10 µM": 97.7}
{"smiles": "Cc1cnc(CNC(=O)Cn2nnc(-c3ccc(CN4CCC(C)CC4)cc3)n2)cn1", "note": "[CBK137067C]", "viability at 28.5 h, 10 µM": 101}
{"smiles": "O=C(c1ccc2occc2c1)N1CCCC2(CCN(C(=O)c3cc(F)c(F)cc3F)C2)C1", "note": "(stereo not drawn) [CBK137071]", "viability at 28.5 h, 10 µM": 90.1}
{"smiles": "O=C(Cc1c[nH]cn1)N1CCCC2(CCN(C(=O)c3cc(F)c(F)cc3F)C2)C1", "note": "(stereo not drawn) [CBK137072]", "viability at 28.5 h, 10 µM": 95.6}
{"smiles": "COc1ccc(C(=O)N2CCC3(CCCN(C(=O)CC4NC(=O)NC4=O)C3)C2)cc1OC", "note": "(stereo not drawn) [CBK137082]", "viability at 28.5 h, 10 µM": 93.7}
{"smiles": "COc1ccc(C(=O)N2CCC3(CCCN(C(=O)Cn4cc(C)c(=O)[nH]c4=O)C3)C2)cc1OC", "note": "(stereo not drawn) [CBK137085]", "viability at 28.5 h, 10 µM": 107}
{"smiles": "COc1ccc(C(=O)N2CCC3(CCCN(C(=O)CN4C(=O)CSC4=O)C3)C2)cc1OC", "note": "(stereo not drawn) [CBK137088]", "viability at 28.5 h, 10 µM": 115}
{"smiles": "Cc1cc(C(=O)N2CCC3(CCN(Cc4ccccc4)C3)C2)n[nH]1", "note": "(stereo not drawn) [CBK137092T]", "viability at 28.5 h, 10 µM": 93.4}
{"smiles": "CCOC(=O)C1(C2CCCCC2)CCN(C(=O)c2cc[nH]c2)CC1", "note": "[CBK137103]", "viability at 28.5 h, 10 µM": 92.1}
{"smiles": "CCOC(=O)C1(C2CCCCC2)CCN(C(=O)c2cccnc2)CC1", "note": "[CBK137104T]", "viability at 28.5 h, 10 µM": 95.4}
{"smiles": "COc1ccc(C(=O)N2CCC3(CCN(CCN4CCCCC4)C3)C2)cc1OC", "note": "(stereo not drawn) [CBK137113T]", "viability at 28.5 h, 10 µM": 103}
{"smiles": "O=C(O)CCN1CCC2(CCN(C(=O)c3cc(F)c(F)cc3F)C2)C1", "note": "(stereo not drawn) [CBK137123]", "viability at 28.5 h, 10 µM": 86.8}
{"smiles": "O=c1[nH]c2ccccc2n1CCCN1CCC2(CC1)CN(CCO)c1ccccc12", "note": "[CBK137133]", "viability at 28.5 h, 10 µM": 97.4}
{"smiles": "O=C(O)CCN1CCCC2(CCN(C(=O)c3ccoc3)C2)C1", "note": "(stereo not drawn) [CBK137139]", "viability at 28.5 h, 10 µM": 93.4}
{"smiles": "O=C(CN1CCCC2(CCN(C(=O)c3ccoc3)C2)C1)Nc1ncccn1", "note": "(stereo not drawn) [CBK137140]", "viability at 28.5 h, 10 µM": 102}
{"smiles": "O=C(Cc1c[nH]cn1)N1CCC2(CCN(Cc3ccccc3)C2)C1", "note": "(stereo not drawn) [CBK137147]", "viability at 28.5 h, 10 µM": 91}
{"smiles": "O=C(c1ccc2[nH]c(=O)[nH]c2c1)N1CCCC2(CCN(Cc3ccccc3)C2)C1", "note": "(stereo not drawn) [CBK137149]", "viability at 28.5 h, 10 µM": 91.7}
{"smiles": "CCN(CCC(C)Sc1ccccc1)c1cncc(Oc2ccc(S(C)(=O)=O)cc2)n1", "note": "(stereo not drawn) [CBK137186T]", "viability at 28.5 h, 10 µM": 96.5}
{"smiles": "CC1(C(C)(O)C(F)F)OC(NC2C3CC4CC(C3)CC2C4)=NC1=O", "note": "(stereo not drawn) [CBK137190]", "viability at 28.5 h, 10 µM": 103}
{"smiles": "O=S(=O)(c1ccccc1)N1CC2(CCNCC2)c2ccccc21", "note": "[CBK137413]", "viability at 28.5 h, 10 µM": 84.2}
{"smiles": "CC(=O)N1CCC(O)(C2(C)OC(NC3C4CC5CC(C4)CC3C5)=NC2=O)CC1", "note": "(stereo not drawn) [CBK138181]", "viability at 28.5 h, 10 µM": 91.8}
{"smiles": "Cc1cc(C)nc(NC(=O)OCc2cc(C)nc(C)c2)c1", "note": "[CBK138231]", "viability at 28.5 h, 10 µM": 87.9}
{"smiles": "Cc1cc(C)nc(NC(=O)OCCc2ccncc2)c1", "note": "[CBK138233]", "viability at 28.5 h, 10 µM": 93.9}
{"smiles": "Cc1cc(COC(=O)Nc2cccnc2)cc(C)n1", "note": "[CBK138236]", "viability at 28.5 h, 10 µM": 83.6}
{"smiles": "NC(=O)CN1CCC(Cc2ccccc2)CC1", "note": "[CBK138319]", "viability at 28.5 h, 10 µM": 109}
{"smiles": "NC(=O)CCN1CCc2ccccc2C1", "note": "[CBK138325]", "viability at 28.5 h, 10 µM": 88.3}
{"smiles": "O=C(CN1CCCc2ccccc21)c1ccsc1", "note": "[CBK138333]", "viability at 28.5 h, 10 µM": 91.5}
{"smiles": "COc1ccc(Cl)cc1N1CCN(CCCn2c(=O)[nH]c3ccccc32)CC1", "note": "[CBK138338]", "viability at 28.5 h, 10 µM": 95.7}
{"smiles": "COc1ccc(Cl)cc1N1CCN(CCO)CC1", "note": "[CBK138339]", "viability at 28.5 h, 10 µM": 88.7}
{"smiles": "CC(C)(C)OC(=O)N1CCCN(c2ccc(S(=O)(=O)c3ccccc3)c([N+](=O)[O-])c2)CC1", "note": "[CBK138502]", "viability at 28.5 h, 10 µM": 99.2}
{"smiles": "O=C(c1ccc(-c2cncc(-c3ccc(Cl)s3)n2)cc1)N1CCOCC1", "note": "[CBK138517]", "viability at 28.5 h, 10 µM": 92.2}
{"smiles": "CC(C)(C)OC(=O)n1cccc1-c1cncc(-c2ccc(C(=O)N3CCOCC3)cc2)n1", "note": "[CBK138520]", "viability at 28.5 h, 10 µM": 100}
{"smiles": "O=C(Nc1cccc2ccccc12)C1CCCN1S(=O)(=O)c1ccc(F)cc1", "note": "(stereo not drawn) [CBK138924]", "viability at 28.5 h, 10 µM": 97.8}
{"smiles": "O=C(Nc1cccc2ccccc12)C1CCCN1S(=O)(=O)c1ccc(Cl)cc1", "note": "(stereo not drawn) [CBK138930]", "viability at 28.5 h, 10 µM": 92.9}
{"smiles": "COCCn1c(SCCC(=O)O)nc2c1c(=O)[nH]c(=O)n2C", "note": "[CBK139751]", "viability at 28.5 h, 10 µM": 82}
{"smiles": "Cc1ccc(CNc2nc3c(c(=O)[nH]c(=O)n3C)n2CC(O)COC(C)C)cc1", "note": "(stereo not drawn) [CBK139849]", "viability at 28.5 h, 10 µM": 87.3}
{"smiles": "COCCSc1nc2c(c(=O)[nH]c(=O)n2C)n1CCCc1ccccc1", "note": "[CBK140504]", "viability at 28.5 h, 10 µM": 90.9}
{"smiles": "CN(C)c1nc2c(c(=O)[nH]c(=O)n2C)n1Cc1cccc2ccccc12", "note": "[CBK140560]", "viability at 28.5 h, 10 µM": 90.1}
{"smiles": "CN(C)Cc1nc2c([nH]1)c(=O)n(C)c(=O)n2C", "note": "[CBK140662]", "viability at 28.5 h, 10 µM": 99.8}
{"smiles": "CC(C)OCC(O)Cn1c(NC2CCCCC2)nc2c1c(=O)[nH]c(=O)n2C", "note": "(stereo not drawn) [CBK140893]", "viability at 28.5 h, 10 µM": 107}
{"smiles": "COc1ccc(OC)c(-n2c(C)cn3c4c(=O)[nH]c(=O)n(C)c4nc23)c1", "note": "[CBK141314]", "viability at 28.5 h, 10 µM": 59.5}
{"smiles": "COc1cccc(C(c2nnnn2C(C)(C)C)N2CCN(c3cccc(Cl)c3)CC2)c1", "note": "(stereo not drawn) [CBK141669]", "viability at 28.5 h, 10 µM": 112}
{"smiles": "COc1ccccc1OCCSc1nnnn1C1CCCCC1", "note": "[CBK141884]", "viability at 28.5 h, 10 µM": 96.6}
{"smiles": "COc1cc(C(c2nnnn2C2CCCCC2)N2CCN(C)CC2)cc(OC)c1OC", "note": "(stereo not drawn) [CBK142338C]", "viability at 28.5 h, 10 µM": 98.3}
{"smiles": "CC(C)(C)OC(=O)N1CCN(S(=O)(=O)c2ccc(Br)cc2)CC1", "note": "[CBK143623]", "viability at 28.5 h, 10 µM": 91.8}
{"smiles": "O=S(=O)(c1ccccc1)n1c(CO)cc2c(C(F)(F)F)cc(CN3CCNCC3)cc21", "note": "[CBK143799]", "viability at 28.5 h, 10 µM": 97.7}
{"smiles": "O=C(NC1CCCC1)c1ccncc1", "note": "[CBK143916]", "viability at 28.5 h, 10 µM": 117}
{"smiles": "CCNC(=O)N1CC2(CCN(CC3COc4ccccc4O3)CC2)c2ccccc21", "note": "(stereo not drawn) [CBK143944]", "viability at 28.5 h, 10 µM": 102}
{"smiles": "CCNC(=O)N1CC2(CCN(CCn3cccc3)CC2)c2ccccc21", "note": "[CBK143945]", "viability at 28.5 h, 10 µM": 93}
{"smiles": "O=C(CO)N1CC2(CCN(CCn3cccc3)CC2)c2ccccc21", "note": "[CBK143953]", "viability at 28.5 h, 10 µM": 86.9}
{"smiles": "OCCN1CC2(CCN(CC3CCCO3)CC2)c2ccccc21", "note": "(stereo not drawn) [CBK143959]", "viability at 28.5 h, 10 µM": 90.8}
{"smiles": "O=C1NC(=O)C(CCCCN2CCCc3ccccc32)N1", "note": "(stereo not drawn) [CBK143965]", "viability at 28.5 h, 10 µM": 98.3}
{"smiles": "CCCCN1CCN(S(=O)(=O)c2ccc(Br)cc2)CC1", "note": "[CBK144055]", "viability at 28.5 h, 10 µM": 99.1}
{"smiles": "CS(=O)(=O)c1ccc(CN2C(=O)CC3(CCN(Cc4ccccc4)CC3)C2=O)cc1", "note": "[CBK144065T]", "viability at 28.5 h, 10 µM": 108}
{"smiles": "Cc1onc(-c2ccccc2)c1CNC(=O)c1ccc(OC(F)(F)F)cc1", "note": "[CBK144080]", "viability at 28.5 h, 10 µM": 97.9}
{"smiles": "Cc1onc(-c2ccccc2)c1CNC(=O)/C=C/c1ccc2c(c1)OCO2", "note": "[CBK144085]", "viability at 28.5 h, 10 µM": 95}
{"smiles": "Cc1onc(-c2ccccc2)c1CNC(=O)c1cscn1", "note": "[CBK144089]", "viability at 28.5 h, 10 µM": 97.1}
{"smiles": "Cc1onc(-c2ccccc2)c1CNC(=O)c1cccnc1", "note": "[CBK144100]", "viability at 28.5 h, 10 µM": 111}
{"smiles": "CN1CCC[C@H]1C(=O)Nc1nc2c(s1)C(=O)CC(C)(C)C2", "note": "[CBK144101]", "viability at 28.5 h, 10 µM": 98.8}
{"smiles": "CC1(C)CC(=O)c2sc(NC(=O)c3ccc(OC(F)(F)F)cc3)nc2C1", "note": "[CBK144102]", "viability at 28.5 h, 10 µM": 109}
{"smiles": "CC1(C)CC(=O)c2sc(NC(=O)Cc3ccc(Cl)c(Cl)c3)nc2C1", "note": "[CBK144103]", "viability at 28.5 h, 10 µM": 93.7}
